Source: PubChem BioAssay (NCI)
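Each compound was tested at five concentrations against cells in 96-well plates for 48 hours. At the GI50, growth is halved. TGI marks complete inhibition of growth.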

How the values were obtained:
Experiment in all cases: NCI anticancer screen, dose series, 48 h
U251 CNS = system: U251 CNS
NCI-H23 lung = system: NCI-H23 lung
TK-10 renal = system: TK-10 renal
NCI-H460 lung = system: NCI-H460 lung
M14 melanoma = system: M14 melanoma
HL-60(TB) leukemia = system: HL-60(TB) leukemia
SF-295 CNS = system: SF-295 CNS
EKVX NSCLC = system: EKVX NSCLC
SK-MEL-2 melanoma = system: SK-MEL-2 melanoma
HCT-15 colon = system: HCT-15 colon
NCI-H226 lung = system: NCI-H226 lung
SNB-19 CNS = system: SNB-19 CNS
SK-MEL-28 melanoma = system: SK-MEL-28 melanoma
SW-620 colon = system: SW-620 colon
SNB-75 CNS = system: SNB-75 CNS
IGROV1 ovarian = system: IGROV1 ovarian
COLO 205 colon = system: COLO 205 colon
MDA-MB-468 breast = system: MDA-MB-468 breast
CCRF-CEM leukemia = system: CCRF-CEM leukemia
SN12C renal = system: SN12C renal
OVCAR-4 ovarian = system: OVCAR-4 ovarian
A549 NSCLC = system: A549 NSCLC
NCI/ADR-RES ovarian = system: NCI/ADR-RES ovarian
HS 578T breast = system: HS 578T breast
MCF7 breast = system: MCF7 breast
UACC-257 melanoma = system: UACC-257 melanoma
DU-145 prostate = system: DU-145 prostate
UACC-62 melanoma = system: UACC-62 melanoma
PC-3 prostate = system: PC-3 prostate

## CCCSc1nc(Nc2ccc(S(N)(=O)=O)cc2)c(C#N)c(-c2cc(OC)c(OC)c(OC)c2)n1
U251 CNS
  GI50: 5.37 µM
  TGI: > 100 µM
NCI-H23 lung
  GI50: 15.7 µM
  TGI: > 100 µM
TK-10 renal
  GI50: 16.1 µM
  TGI: > 100 µM
NCI-H460 lung
  GI50: 5.46 µM
  TGI: > 100 µM
M14 melanoma
  GI50: 6.74 µM
  TGI: > 100 µM
HL-60(TB) leukemia
  GI50: 2.93 µM
  TGI: 33.2 µM
SF-295 CNS
  GI50: 3.75 µM
  TGI: 28.3 µM
EKVX NSCLC
  GI50: 5.27 µM
  TGI: > 100 µM
SK-MEL-2 melanoma
  GI50: 11.8 µM
  TGI: > 100 µM
HCT-15 colon
  GI50: 3.4 µM
  TGI: > 100 µM
NCI-H226 lung
  GI50: 6.07 µM
  TGI: > 100 µM
SNB-19 CNS
  GI50: 11.7 µM
  TGI: > 100 µM
SK-MEL-28 melanoma
  GI50: 7.29 µM
  TGI: > 100 µM
SW-620 colon
  GI50: 8.34 µM
  TGI: > 100 µM
SNB-75 CNS
  GI50: 2.09 µM
  TGI: > 100 µM
IGROV1 ovarian
  GI50: 25.9 µM
  TGI: > 100 µM
COLO 205 colon
  GI50: 8.77 µM
  TGI: > 100 µM
MDA-MB-468 breast
  GI50: 6.22 µM
  TGI: 65.4 µM
CCRF-CEM leukemia
  GI50: 3.44 µM
  TGI: > 100 µM
SN12C renal
  GI50: 5.77 µM
  TGI: > 100 µM
OVCAR-4 ovarian
  GI50: 6.39 µM
  TGI: > 100 µM
A549 NSCLC
  GI50: 4.31 µM
  TGI: > 100 µM
NCI/ADR-RES ovarian
  GI50: 4.6 µM
  TGI: > 100 µM
HS 578T breast
  GI50: 7.33 µM
  TGI: > 100 µM
MCF7 breast
  GI50: 4.23 µM
  TGI: > 100 µM
UACC-257 melanoma
  GI50: 19.2 µM
  TGI: > 100 µM
DU-145 prostate
  GI50: 7.93 µM
  TGI: > 100 µM
UACC-62 melanoma
  GI50: 6.25 µM
  TGI: > 100 µM
PC-3 prostate
  GI50: 2.8 µM
  TGI: > 100 µM
